Where a chain is given by its changes, count along the chain named. In names and notes the source's numbering stands. Several values for one entry are separate records, joined by “and”; a condition that tells them apart may be missing. Equal entries are not always repeated. Where two headings read alike, the source gives them in different places.
T1: GACF327W (Mus musculus, UniProt D3Z7P3, F327W)
T1 sequence (D3Z7P3 73-603 isoform D3Z7P3-2 F327W): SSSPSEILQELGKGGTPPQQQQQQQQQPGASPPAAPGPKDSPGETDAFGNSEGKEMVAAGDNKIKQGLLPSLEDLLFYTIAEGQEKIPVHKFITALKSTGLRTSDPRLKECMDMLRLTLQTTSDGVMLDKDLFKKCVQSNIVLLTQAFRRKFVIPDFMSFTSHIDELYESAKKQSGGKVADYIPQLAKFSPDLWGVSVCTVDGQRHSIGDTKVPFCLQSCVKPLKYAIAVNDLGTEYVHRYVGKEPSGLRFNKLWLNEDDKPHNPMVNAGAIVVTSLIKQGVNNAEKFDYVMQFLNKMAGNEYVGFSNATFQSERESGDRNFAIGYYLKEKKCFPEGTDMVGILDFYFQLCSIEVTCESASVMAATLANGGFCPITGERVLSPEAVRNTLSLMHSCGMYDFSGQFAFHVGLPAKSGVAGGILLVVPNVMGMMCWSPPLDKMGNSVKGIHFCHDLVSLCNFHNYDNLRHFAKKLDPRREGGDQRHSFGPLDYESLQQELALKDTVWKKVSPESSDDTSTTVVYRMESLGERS

T2: GAC tetramers (Mus musculus, UniProt D3Z7P3)
T2 sequence (D3Z7P3 73-603 isoform D3Z7P3-2): T1 sequence (D3Z7P3 73-603 isoform D3Z7P3-2 F327W) with W255F

T3: GAC (Mus musculus, UniProt D3Z7P3)
T3 sequence (D3Z7P3 73-603 isoform D3Z7P3-2): T1 sequence (D3Z7P3 73-603 isoform D3Z7P3-2 F327W) with W255F

T4: WT GAC (Mus musculus, UniProt D3Z7P3)
T4 sequence (D3Z7P3 73-603 isoform D3Z7P3-2): T1 sequence (D3Z7P3 73-603 isoform D3Z7P3-2 F327W) with W255F

B1: GACF327W: mutant mouse GLS protein (GAC) with phenylalanine to tryptophan substitution at position 327 (protein)
chain: MMRLRGSAMLRELLLRPPAAVGAVLRRAQPLGTLCRRPRGGSRPTAGLVAAARLHPWWGGGGRAKGPGAGGLSSSPSEILQELGKGGTPPQQQQQQQQQPGASPPAAPGPKDSPGETDAFGNSEGKEMVAAGDNKIKQGLLPSLEDLLFYTIAEGQEKIPVHKFITALKSTGLRTSDPRLKECMDMLRLTLQTTSDGVMLDKDLFKKCVQSNIVLLTQAFRRKFVIPDFMSFTSHIDELYESAKKQSGGKVADYIPQLAKFSPDLWGVSVCTVDGQRHSIGDTKVPFCLQSCVKPLKYAIAVNDLGTEYVHRYVGKEPSGLRFNKLWLNEDDKPHNPMVNAGAIVVTSLIKQGVNNAEKFDYVMQFLNKMAGNEYVGFSNATFQSERESGDRNFAIGYYLKEKKCFPEGTDMVGILDFYFQLCSIEVTCESASVMAATLANGGFCPITGERVLSPEAVRNTLSLMHSCGMYDFSGQFAFHVGLPAKSGVAGGILLVVPNVMGMMCWSPPLDKMGNSVKGIHFCHDLVSLCNFHNYDNLRHFAKKLDPRREGGDQRHSFGPLDYESLQQELALKDTVWKKVSPESSDDTSTTVVYRMESLGERS
modifications: Mouse GAC with F327W substitution
B2: WT GAC: recombinant wild-type mouse glutaminase C, NP_001106854.1, residues 73-603 (protein)
chain: T1 sequence (D3Z7P3 73-603 isoform D3Z7P3-2 F327W) with W255F
modifications: left off: small tags and cut ends

Experiments:
GACF327W [1] = target: T1, GACF327W; details: for enhancement of the tryptophan fluorescence of the F327W mutant: addition of anionic activator, 50 mM anion, 400 nM F327W in FIG. 10A
GAC tetramers = target: T2, GAC tetramers; details: for FRET signal (GAC tetramer formation): 25 nM 488-labeled GAC, 75 nM QSY9-GAC; for reversibility of bound GAC tetramers: after addition of excess unlabeled GAC subunits
GACF327W [2] = target: T1, GACF327W; test: biochemical; details: KD from fluorescence quenching of the GACF327W mutant, 100 nM GACF327W; fit to a bimolecular interaction equation
GAC [3] = target: T3, GAC; test: biochemical
GAC [4] = target: T3, GAC; test: Real-time NADH fluorescence assay of GAC activity; type: biochemical; parameters: residues 73-603) was cloned into a pET28a vector; His tag with thrombin cleavage site (N); made in house; details: 1 μM inhibitor, 10 nM GAC, 20 mM glutamine, 100 mM HPO4^2−
From the text: FIG. 4A is a spectra of real-time NADH assays of GAC activity, in which the increased NADH fluorescence (in arbitrary units (AU)) results from the coupled reaction where GAC catalyzes glutamate production, and GDH converts glutamate to α-ketoglutarate and NAD to NADH. […] FIG. 4B is a graph of relative glutaminase activity. […] Error bars represent the standard deviation of three independent experiments.

GAC [5] = target: T3, GAC; details: for Kd: read-out: KD values from glutaminase activity with increasing concentrations of anion, 50 nM WT GAC, allosteric activation
WT GAC = target: T4, WT GAC; details: 5 mg/ml WT GAC; 50 mM anion in the running buffer
[6] = Catalytic properties of GAC proteins (phosphate-stimulated glutaminase activity); type: biochemical, mouse

Molecule	reversibility of bound GAC tetramers (GAC tetramers)	enhancement of the tryptophan fluorescence of the F327W mutant (GACF327W [1]) [%]	Kd (GAC [5]) [µM]	FRET signal (GAC tetramer formation) (GAC tetramers; 100 mM anion)	Km [6] [mM]	Vmax [6] [µmol/min]	further results
O=C(Cc1cccc(OC(F)(F)F)c1)Nc1ccc(CCCCc2nnc(NC(=O)Cc3ccccn3)s2)nn1 [CB-839]	resistant to dissociation						change in tryptophan fluorescence of GACF327W upon addition of inhibitor (GACF327W [1]; 1 μM BPTES in FIG. 6B, increasing concentrations in FIGS. 8A-B): dose-dependent quenching; binding kinetics (comparison) (GACF327W [1]; real-time F327W fluorescence): slower binding kinetics than BPTES; FRET signal (GAC tetramer formation) (GAC tetramers; 500 nM inhibitor): rapidly increases the FRET signal; Kd (GACF327W [2]): 0.034 µM and 0.03 µM; IC50 (GAC [3]): 0.023 ± 0.001 µM; inhibition of phosphate-stimulated GAC activity (initial rate analysis) (GAC [4]): stronger inhibition
O=P(O)(O)O [inorganic phosphate]	readily reversible	25	20600 ± 400	rapidly increases the FRET signal			oligomer size from molecular weight distribution (WT GAC): greater than 32 mers
O=S(=O)(O)O [sulfate]	readily reversible	15	36400 ± 3000	rapidly increases the FRET signal			effectiveness in activating GAC relative to phosphate (GAC [5]; relative to phosphate (HPO4^2−)): −50%
B1					15 ± 1.7	435 ± 19	
B2					16.4 ± 0.4	453 ± 8	

Reference: patent publication US10767212B2, “Method of screening compounds” (Cornell University, priority 2016, dated 2020)
